The values that follow come from patent publication US6844294B2, “Synergistic herbicidal compositions comprising herbicides from the benzoylcyclohexanedione group for use in rice crops” (Aventis CropScience GmbH, priority 2001, dated 2005).

Holding throughout (type): in vivo
Test [1] relates to SEBEX Sesbania exaltata. In words: Herbicidal action on SEBEX, visual scoring on a percentage scale vs untreated control. An excerpt: (§1) Seeds or root segments of monocotyledonous and dicotyledonous harmful plants are placed in sandy loam in pots and covered with soil. In the case of spray application, the compositions formulated as concentrated aqueous solutions, wettable powders or emulsion concentrates, are then applied to the surface of the covering soil as aqueous solution, suspension or emulsion, respectively, at an application rate of 600 to 800 l of water per ha (converted) in a variety of dosages. Immediately to a few days after the application, the test containers are flooded with water up to a depth of 30 mm above the soil surface. In the case of submerged application, in contrast, the soil in the closed test container is already covered with paddy water up to a depth of 30 mm at the time of application. Here, the formulated active ingredients are added directly to the paddy water, for example in the form of granules. After the treatment, the pots are placed in a greenhouse and kept under good growth conditions for the weeds. Visual scoring of the plant damage or the adverse effect on the emergence is carried out after the test plants have emerged after an experimental period of 3 to 4 weeks in comparison with untreated controls. […] Frequently, effects of the combinations according to the invention are observed which exceed the formal total of the effects when the herbicides are applied individually. When using suitable low dosages, the values observed in the experiments show an effect of the combinations which exceed the expected values calculated using Colby's formula.
(§2) The herbicidal efficacy of the active ingredients or active ingredient mixtures was scored visually by comparing the treated variants with untreated control variants. The damage and development of all aerial plant parts was recorded. Scoring was done on a percentage scale (100% action=all plants dead; 50% action=50% of the plants and green plant parts dead; 0% action=no discernible action=like untreated control plot).
(§3) Seeds or root segments of monocotyledonous and dicotyledonous weeds are placed in sandy loam in pots, covered with soil and grown in the greenhouse under good growth conditions (temperature, atmospheric humidity, water supply). Approximately three weeks after planting, the experimental plants are treated with the compositions according to the invention. In the case of spray application, the compositions according to the invention, which are formulated as wettable powders or emulsion concentrates, are sprayed onto the green plant parts in various dosages with an application rate of 600 to 800 l of water per ha (converted). Immediately to a few days after the application, the test containers are flooded with water up to a depth of 30 mm above the soil surface. In the case of submerged application, in contrast, the soil in the closed test container is already covered with paddy water up to a depth of 30 mm at the time of application. Here, the formulated active ingredients are added directly to the paddy water. After the experimental plants have remained in the greenhouse under optimal growth conditions for a further 3 to 4 weeks, the effect of the preparations is scored visually in comparison with untreated controls. […] When using suitable low dosages, the values observed in the experiments show an effect of the combinations which exceed the expected values calculated using Colby's formula. […]

In test [2] the test system is ECHCG. In words: Herbicidal action on ECHCG, visual scoring on a percentage scale vs untreated control. The source says: (§4) Seeds or root segments of monocotyledonous and dicotyledonous harmful plants are placed in sandy loam in pots and covered with soil. In the case of spray application, the compositions formulated as concentrated aqueous solutions, wettable powders or emulsion concentrates, are then applied to the surface of the covering soil as aqueous solution, suspension or emulsion, respectively, at an application rate of 600 to 800 l of water per ha (converted) in a variety of dosages. Immediately to a few days after the application, the test containers are flooded with water up to a depth of 30 mm above the soil surface. In the case of submerged application, in contrast, the soil in the closed test container is already covered with paddy water up to a depth of 30 mm at the time of application. Here, the formulated active ingredients are added directly to the paddy water, for example in the form of granules. […] When using suitable low dosages, the values observed in the experiments show an effect of the combinations which exceed the expected values calculated using Colby's formula.
(§5) The herbicidal efficacy of the active ingredients or active ingredient mixtures was scored visually by comparing the treated variants with untreated control variants. The damage and development of all aerial plant parts was recorded. […]

Test [3] deals with CYPSE. In words: Herbicidal action on CYPSE, visual scoring on a percentage scale vs untreated control.
Test [4] deals with SCPJU Scirpus juncoides. In words: Herbicidal action on SCPJU, visual scoring on a percentage scale vs untreated control.
From the text: as §1, §2
Seeds or root segments of monocotyledonous and dicotyledonous weeds are placed in sandy loam in pots, covered with soil and grown in the greenhouse under good growth conditions (temperature, atmospheric humidity, water supply). Approximately three weeks after planting, the experimental plants are treated with the compositions according to the invention. In the case of spray application, the compositions according to the invention, which are formulated as wettable powders or emulsion concentrates, are sprayed onto the green plant parts in various dosages with an application rate of 600 to 800 l of water per ha (converted). Immediately to a few days after the application, the test containers are flooded with water up to a depth of 30 mm above the soil surface. In the case of submerged application, in contrast, the soil in the closed test container is already covered with paddy water up to a depth of 30 mm at the time of application. Here, the formulated active ingredients are added directly to the paddy water. After the experimental plants have remained in the greenhouse under optimal growth conditions for a further 3 to 4 weeks, the effect of the preparations is scored visually in comparison with untreated controls. The compositions according to the invention also have an outstanding herbicidal action against a broad spectrum of economically important grass weeds and broad-leaved weeds when applied post-emergence. Frequently, effects of the combinations according to the invention are observed which exceed the formal total of the effects when the herbicides are applied individually. When using suitable low dosages, the values observed in the experiments show an effect of the combinations which exceed the expected values calculated using Colby's formula.
Crop plants were grown in the open on plots under natural field conditions, seeds or root segments of typical harmful plants having been planted and the natural weed flora being exploited. […]

In test [5] the test system is SAGPY Sagittaria pygmaea. The test can be described thus: Herbicidal action on SAGPY, visual scoring on a percentage scale vs untreated control.
From the text: as §4, with “granules. After the treatment, the pots are placed in a greenhouse and kept under good growth conditions for the weeds.” for “granules.”
as §5
Seeds or root segments of monocotyledonous and dicotyledonous weeds are placed in sandy loam in pots, covered with soil and grown in the greenhouse under good growth conditions (temperature, atmospheric humidity, water supply). […] After the experimental plants have remained in the greenhouse under optimal growth conditions for a further 3 to 4 weeks, the effect of the preparations is scored visually in comparison with untreated controls. […] When using suitable low dosages, the values observed in the experiments show an effect of the combinations which exceed the expected values calculated using Colby's formula. […]

In test [6] the test system is MOOVA. In words: Herbicidal action on MOOVA, visual scoring on a percentage scale vs untreated control.
From the text: as §4, §5

Test [7] concerns PHBPU. In words: Herbicidal action on PHBPU, visual scoring on a percentage scale vs untreated control.
From the text: as §1, §2, §3

Test [8] relates to CHEAL. In words: Herbicidal action on CHEAL, visual scoring on a percentage scale vs untreated control.
From the text: as §4, §5

Test [9] deals with ECHOR. The test can be described thus: Herbicidal action on ECHOR, visual scoring on a percentage scale vs untreated control. The note with it: Example B.XII, dosage 25 g ai/ha.
From the text: as §4, §5

The mark [10] stands for this setting: Example B.XV, dosage 4.3 g ai/ha.
[11] abbreviates: Example B.IX, dosage 187 g ai/ha.
The mark [12] stands for this setting: Example B.IV, dosage 20 g ai/ha.
[13] abbreviates: Example B.X, dosage 1.8 g ai/ha.
Setting [14] is: Example B.XIII, dosage 22 g ai/ha.

Take `CP(=O)(O)CCC(N)C(=O)O` (stereo not shown) [Compound B10.1, glufosinate]: the “found (herbicidal action)” value came to 5% in [1] (Example B.VII, dosage 100 g ai/ha) and 0% in test [2] (Example B.VII, dosage 50 g ai/ha). For the compound `COc1cc(OC)nc(NC(=O)NS(=O)(=O)Cc2ccccc2C(=O)O)n1` [Compound B2.1, bensulfuron], the “found (herbicidal action)” value in test [3] (Example B.I, dosage 10 g ai/ha) is recorded as 68%; in test [1] (Example B.I, dosage 20 g ai/ha), 45%.

As to `COC(=O)c1c(Cl)nn(C)c1S(=O)(=O)NC(=O)Nc1nc(OC)cc(OC)n1` [Compound B2.5, halosulfuron-methyl], the “found (herbicidal action)” value in test [4] (Example B.XI, dosage 15 g ai/ha) is 0%; in [5] (Example B.XI, dosage 7.5 g ai/ha), 0%. With `CCC(=O)Nc1ccc(Cl)c(Cl)c1` [Compound B8.1, propanil], the “found (herbicidal action)” value in test [4] (Example B.XVI, dosage 375 g ai/ha) turned out to be 0%; in test [6] (Example B.XVI, dosage 187 g ai/ha) it was 0%. For `CN(C(=O)COc1nc2ccccc2s1)c1ccccc1` [Compound B5.1, mefenacet], the “found (herbicidal action)” value is given as 0% in test [4] (Example B.XIV, dosage 125 g ai/ha) and 0% in [5] (Example B.XIV, dosage 63 g ai/ha).

Take `CCc1cnc(C2=NC(C)(C(C)C)C(=O)N2)c(C(=O)O)c1` (stereo not shown) [Compound B2.9, imazethapyr]: the “found (herbicidal action)” value in test [7] (Example B.II, dosage 5 g ai/ha) is reported as 5%; in test [8] (Example B.II, dosage 10 g ai/ha) it was 5%. Regarding `O=C(O)c1c(Cl)ccc2cc(Cl)cnc12` [Compound B9.1, quinclorac], the “found (herbicidal action)” value in test [1] (Example B.VI, dosage 5 g ai/ha) stood at 0%; in test [7] (Example B.VI, dosage 10 g ai/ha), 78%.

Regarding `COc1cc(OC)n2nc(S(=O)(=O)Nc3c(Cl)ccc(C)c3Cl)nc2n1` [Compound B2.13, metosulam], the “found (herbicidal action)” value in [1] (B.III, dosage 2.5 g ai/ha) was 30%; in test [7] (B.III, dosage 2.5 g ai/ha) it was 85%. As for `CC1(C)CON(Cc2ccccc2Cl)C1=O` [Compound B3.1, clomazone], the “found (herbicidal action)” value in test [3] (Example B.XII, dosage 50 g ai/ha) was 0%; in [9], 30%. On to `O=C(O)CNCP(=O)(O)O` [Compound B11.1, glyphosate], for which the “found (herbicidal action)” value in [8] (Example B.VIII, dosage 100 g ai/ha) was 0%.

On to `CC1=C(c2ccccc2)C(=O)N(C(C)(C)c2cc(Cl)cc(Cl)c2)CO1` [Compound B5.2, oxaziclomefone], for which the “found (herbicidal action)” value in [3] (setting [10]) and in test [4] (setting [10]) was 0% throughout. Consider `CCN(CC)C(=O)SCc1ccc(Cl)cc1` [Compound B1.2, thiobencarb], for which the results for the “found (herbicidal action)” value in test [4] (setting [11]) and in [5] (setting [11]) were 20% and 0%, respectively.

Regarding `CCOC(=O)C(C)Oc1ccc(Oc2nc3ccc(Cl)cc3o2)cc1` (stereo not shown) [Compound B4.2, fenoxaprop-ethyl], the “found (herbicidal action)” value in [1] (setting [12]) and in [7] (setting [12]) was 0% each time. `COc1cc(OC)nc(Oc2cccc(Oc3nc(OC)cc(OC)n3)c2C(=O)O)n1` [Compound B2.2, bispyribac-sodium]: the “found (herbicidal action)” value in test [4] (setting [13]) and in [6] (setting [13]) was 0% in each case. For `CCCCOC(=O)[C@@H](C)Oc1ccc(Oc2ccc(C#N)cc2F)cc1` [Compound B4.1, cyhalofop-butyl], the “found (herbicidal action)” value in test [3] (setting [14]) and in [4] (setting [14]) was 0% in each case. `CCC(CC)Nc1c([N+](=O)[O-])cc(C)c(C)c1[N+](=O)[O-]` [Compound B7.1, pendimethalin]: the “found (herbicidal action)” value in test [7] (Example B.V, dosage 100 g ai/ha) is given as 75%; in [2] (Example B.V, dosage 200 g ai/ha) it was 78%.
